Data reported in ChEMBL document CHEMBL1201862, “PubChem BioAssay data set” (2004).
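In this assay, cells in 96-well plates receive the compound at five concentrations for 48 hours. Endpoints are linearly interpolated between the surrounding concentrations. Here, GI50 denotes the concentration required for 50% inhibition of growth.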 Calls of active or inactive are those of the source. Rule as the data show it: active = GI50 up to about 1.1 µM and inactive = higher.

Columns and labels:
Assay in all cases: NCI tumour cell line growth inhibition, 48 h
NCI-H522 = tested on: NCI-H522
SN12C = tested on: SN12C
NCI-H23 = tested on: NCI-H23
DU-145 = tested on: DU-145
HOP-62 = tested on: HOP-62
COLO 205 = tested on: COLO 205
OVCAR-8 = tested on: OVCAR-8
K562 = tested on: K562
UACC-257 = tested on: UACC-257
TK-10 = tested on: TK-10
U-251 = tested on: U-251
MOLT-4 = tested on: MOLT-4
CAKI-1 = tested on: CAKI-1
Malme-3M = tested on: Malme-3M
SW-620 = tested on: SW-620
SK-OV-3 = tested on: SK-OV-3
EKVX = tested on: EKVX
KM12 = tested on: KM12
UO-31 = tested on: UO-31
SNB-19 = tested on: SNB-19

| SMILES | GI50 (NCI-H522) | GI50 (SN12C) | GI50 (NCI-H23) | GI50 (DU-145) | GI50 (HOP-62) | GI50 (COLO 205) | GI50 (OVCAR-8) | GI50 (K562) | GI50 (UACC-257) | GI50 (TK-10) | GI50 (U-251) | GI50 (MOLT-4) | GI50 (CAKI-1) | GI50 (Malme-3M) | GI50 (SW-620) | GI50 (SK-OV-3) | GI50 (EKVX) | GI50 (KM12) | GI50 (UO-31) | GI50 (SNB-19) |
| --- | --- | --- | --- | --- | --- | --- | --- | --- | --- | --- | --- | --- | --- | --- | --- | --- | --- | --- | --- | --- |
| O=C(n1c(=O)n(-c2ccc(Cl)cc2)c(=O)n1C(=O)C(Cl)(Cl)Cl)C(Cl)(Cl)Cl | > 100 µM (inactive) | > 100 µM (inactive) | > 100 µM (inactive) | > 100 µM (inactive) | > 100 µM (inactive) | > 100 µM (inactive) | > 100 µM (inactive) | 21.4 µM (inactive) | > 100 µM (inactive) | > 100 µM (inactive) | > 100 µM (inactive) | > 100 µM (inactive) | > 100 µM (inactive) | > 100 µM (inactive) | > 100 µM (inactive) | > 100 µM (inactive) | > 100 µM (inactive) | 82.8 µM (inactive) | 31 µM (inactive) | > 100 µM (inactive) |
| CC(C)(C)OC(=O)NC(Cc1ccccc1)C(=O)OCN1C(=O)C2C3C=CC(C2C1=O)C1C2C(=O)N(COC(=O)C(Cc4ccccc4)NC(=O)OC(C)(C)C)C(=O)C2C31 (stereo not given) | 23.7 µM (inactive) | 25.5 µM (inactive) | 38.8 µM (inactive) | 41.6 µM (inactive) | 30.4 µM (inactive) | 8.22 µM (inactive) | 30.1 µM (inactive) | 23.1 µM (inactive) | > 56.4 µM (inactive) | 31 µM (inactive) | 41.2 µM (inactive) | 10 µM (inactive) | 27.5 µM (inactive) | 39.4 µM (inactive) | 26.3 µM (inactive) | 37.2 µM (inactive) | 23.6 µM (inactive) | > 100 µM (inactive) | 19.5 µM (inactive) | 34.3 µM (inactive) |
| Cc1cccc(Nc2cnc(N)nc2N)c1 | > 100 µM (inactive) | > 100 µM (inactive) | > 100 µM (inactive) | > 100 µM (inactive) | > 100 µM (inactive) | > 100 µM (inactive) | > 100 µM (inactive) | > 100 µM (inactive) | > 100 µM (inactive) | > 100 µM (inactive) | > 100 µM (inactive) | > 100 µM (inactive) | > 100 µM (inactive) | > 100 µM (inactive) | > 100 µM (inactive) | > 100 µM (inactive) | > 100 µM (inactive) | > 100 µM (inactive) | 90.2 µM (inactive) | > 100 µM (inactive) |
| COC(=O)[C@@](C)(COC(=O)C(C)(C)C)NC(=O)OC(C)(C)C | > 100 µM (inactive) | > 100 µM (inactive) | > 100 µM (inactive) | > 100 µM (inactive) | > 100 µM (inactive) | > 100 µM (inactive) | > 100 µM (inactive) | > 100 µM (inactive) | > 100 µM (inactive) | > 100 µM (inactive) | > 100 µM (inactive) | > 100 µM (inactive) | > 100 µM (inactive) | > 100 µM (inactive) | > 100 µM (inactive) | > 100 µM (inactive) | > 100 µM (inactive) | > 100 µM (inactive) | > 100 µM (inactive) | > 100 µM (inactive) |
| COc1ccc(C2NC(=S)Nc3c2c(=O)oc2c3ccc3ccccc32)cc1 (stereo not given) | > 100 µM (inactive) | 88.5 µM (inactive) | 67.3 µM (inactive) | > 100 µM (inactive) | 87.9 µM (inactive) | > 100 µM (inactive) | 92.3 µM (inactive) | 56.9 µM (inactive) | > 100 µM (inactive) | 99.3 µM (inactive) | 40.6 µM (inactive) | 73.5 µM (inactive) | 58.3 µM (inactive) | > 100 µM (inactive) | > 100 µM (inactive) | > 100 µM (inactive) | 27.4 µM (inactive) | 58.3 µM (inactive) | 77.1 µM (inactive) | 35.7 µM (inactive) |
| CSCCC(NCc1c(O)ccc2ccc(=O)oc12)C(=O)O (stereo not given) | > 100 µM (inactive) | > 100 µM (inactive) | > 100 µM (inactive) | > 100 µM (inactive) | > 100 µM (inactive) | > 100 µM (inactive) | > 100 µM (inactive) | > 100 µM (inactive) | > 100 µM (inactive) | > 100 µM (inactive) | > 100 µM (inactive) | > 100 µM (inactive) | > 100 µM (inactive) | > 100 µM (inactive) | > 100 µM (inactive) | > 100 µM (inactive) | > 100 µM (inactive) | > 100 µM (inactive) | > 100 µM (inactive) | > 100 µM (inactive) |
| CCc1n[nH]c(=O)n1/N=C/c1ccccc1Cl | > 100 µM (inactive) | > 100 µM (inactive) | > 100 µM (inactive) | > 100 µM (inactive) | 76.2 µM (inactive) | > 100 µM (inactive) | > 100 µM (inactive) | > 100 µM (inactive) | > 100 µM (inactive) | > 100 µM (inactive) | 65.8 µM (inactive) | > 100 µM (inactive) | > 100 µM (inactive) | > 100 µM (inactive) | > 100 µM (inactive) | > 100 µM (inactive) | 1.42 µM (inactive) | 93.8 µM (inactive) | > 100 µM (inactive) | > 100 µM (inactive) |
| C=CCOC1OC(CO[Si](C)(C)C(C)(C)C)C(OCc2ccccc2)C(OCc2ccccc2)C1OCc1ccccc1 (stereo not given) | 34 µM (inactive) | 71.8 µM (inactive) | > 100 µM (inactive) | 39.7 µM (inactive) | 21.7 µM (inactive) | > 100 µM (inactive) | 37.5 µM (inactive) | > 100 µM (inactive) | 46.8 µM (inactive) | > 100 µM (inactive) | 29.2 µM (inactive) | > 100 µM (inactive) | 54.5 µM (inactive) | 27.5 µM (inactive) | > 100 µM (inactive) | > 100 µM (inactive) | > 100 µM (inactive) | > 100 µM (inactive) | 46.1 µM (inactive) | 26.2 µM (inactive) |
| CCCC(=O)Nc1cc(/C=C/C(=O)N2CC(CCl)c3ccc(N)cc32)n(C)c1 (stereo not given) | < 0.0113 µM (active) | 0.317 µM (active) | 0.145 µM (active) | 0.0361 µM (active) | 0.484 µM (active) | 0.134 µM (active) | 0.267 µM (active) | 0.116 µM (active) | 0.195 µM (active) | 0.112 µM (active) | 0.324 µM (active) | 0.17 µM (active) | 0.0441 µM (active) | 0.18 µM (active) | 0.29 µM (active) | 0.47 µM (active) | 0.368 µM (active) | 0.257 µM (active) | 0.159 µM (active) | 0.406 µM (active) |
| O=C(O)/C=C/c1ccc(O)c(O)c1 [CAFFEIC ACID] | 97.5 µM (inactive) | > 100 µM (inactive) | > 100 µM (inactive) | > 100 µM (inactive) | > 100 µM (inactive) | > 100 µM (inactive) | > 100 µM (inactive) | > 100 µM (inactive) | > 100 µM (inactive) | > 100 µM (inactive) | > 100 µM (inactive) | > 100 µM (inactive) | > 100 µM (inactive) | > 100 µM (inactive) | > 43.3 µM (inactive) | > 100 µM (inactive) | > 100 µM (inactive) | > 100 µM (inactive) | 77.6 µM (inactive) | > 100 µM (inactive) |
